Data from ChEMBL document CHEMBL1127438, “Substituted (S)-phenylpiperidines and rigid congeners as preferential dopamine autoreceptor antagonists: synthesis and structure-activity relationships” (J Med Chem, 1994).
Each block holds one molecule with its values, some of them ahead of it.

How the values were obtained:
Rattus norvegicus [1] = experiment: Compound is evaluated for DOPAC level in nonpretreated habituated rats after subcuteneous dose (100 micro mol/kg) in rat striatum; value expressed as percent of saline controls; type: functional
D(3) dopamine receptor [2] = molecular target: T1, D(3) dopamine receptor (Homo sapiens, UniProt P35462); experiment: Tested for in vitro binding affinity against cloned mammalian dopamine D3 receptor, expressed in CHO-K1 cells, using [3H]spiperone as radioligand; type: cell-based
T1 sequence (P35462 whole entry): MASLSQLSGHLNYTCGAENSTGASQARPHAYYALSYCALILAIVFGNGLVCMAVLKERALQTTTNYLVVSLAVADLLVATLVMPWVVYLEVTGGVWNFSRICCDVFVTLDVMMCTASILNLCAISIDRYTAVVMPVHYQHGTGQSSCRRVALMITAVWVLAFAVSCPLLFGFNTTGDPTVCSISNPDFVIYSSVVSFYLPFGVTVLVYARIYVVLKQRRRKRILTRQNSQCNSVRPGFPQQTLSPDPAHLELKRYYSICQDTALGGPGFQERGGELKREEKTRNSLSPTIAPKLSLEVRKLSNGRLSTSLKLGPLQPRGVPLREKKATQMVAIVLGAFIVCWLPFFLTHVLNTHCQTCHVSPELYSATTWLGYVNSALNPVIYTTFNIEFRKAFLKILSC

D(2) dopamine receptor [3] = molecular target: T2, D(2) dopamine receptor (Homo sapiens, UniProt P14416); experiment: biochemical
T2 sequence (P14416 whole entry): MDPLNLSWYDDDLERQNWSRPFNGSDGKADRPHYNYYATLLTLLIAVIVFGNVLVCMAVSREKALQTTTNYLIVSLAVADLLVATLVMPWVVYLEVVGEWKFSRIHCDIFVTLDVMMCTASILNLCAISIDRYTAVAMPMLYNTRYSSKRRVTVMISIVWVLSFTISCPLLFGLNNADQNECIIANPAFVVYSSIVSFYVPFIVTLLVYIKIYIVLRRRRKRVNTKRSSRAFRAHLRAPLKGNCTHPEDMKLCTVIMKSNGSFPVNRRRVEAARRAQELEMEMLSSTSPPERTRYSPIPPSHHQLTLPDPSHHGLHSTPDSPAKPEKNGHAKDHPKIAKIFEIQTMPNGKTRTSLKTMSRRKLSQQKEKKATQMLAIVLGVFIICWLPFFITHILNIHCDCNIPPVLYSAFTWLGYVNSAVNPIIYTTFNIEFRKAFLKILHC
Description: (§1) Affinity against recombinant dopamine receptor (DA) D2 expressed in CHO-K1 cells, using [3H]-spiperone as radioligand

Rattus norvegicus [4] = species on record: Rattus norvegicus; experiment: Tested in vio for concomitant ability to antagonize the locomotor activity of rat induced by Di-Pr-5,6-ADTN, Value expressed as locomotor activity (LMA), % of control; type: functional; design: scale not given: the % may be the effect or the level left
Rattus norvegicus [5] = experiment: Evaluated biochemically in nonhabituated rats for (100 umol/kg) subcuteneous dose, Value expressed as locomotor activity (LMA); type: functional
Rattus norvegicus [6] = experiment: Tested in vivo for its ability to displace DA receptor agonist (Di-Pr-5,6-ADTN) from rat striatal binding sites at 0.25 uM/Kg sc. dose (after subtraction of cerebellum levels); type: functional
Rattus norvegicus [7] = experiment: Effect of (60 min after administration of 200 (uM/kg) subcuteneous dose on DA release in brain dialysis model of rat striatum; Values expressed as percent of saline controls; type: functional
Rattus norvegicus [8] = experiment: Evaluated biochemically in nonpretreated habituated rats for (100 uM/kg) subcuteneous dose, Value expressed as locomotor activity (LMA); type: functional
Rattus norvegicus [9] = experiment: Evaluated biochemically in reserpine-pretreated habituated rats for (100 umol/kg) subcuteneous dose in rat striatum (DOPAacc), Value expressed as counts/30 min; type: functional
D(2) dopamine receptor [10] = molecular target: T3, D(2) dopamine receptor (Rattus norvegicus, UniProt P61169)
T3 sequence (P61169 whole entry): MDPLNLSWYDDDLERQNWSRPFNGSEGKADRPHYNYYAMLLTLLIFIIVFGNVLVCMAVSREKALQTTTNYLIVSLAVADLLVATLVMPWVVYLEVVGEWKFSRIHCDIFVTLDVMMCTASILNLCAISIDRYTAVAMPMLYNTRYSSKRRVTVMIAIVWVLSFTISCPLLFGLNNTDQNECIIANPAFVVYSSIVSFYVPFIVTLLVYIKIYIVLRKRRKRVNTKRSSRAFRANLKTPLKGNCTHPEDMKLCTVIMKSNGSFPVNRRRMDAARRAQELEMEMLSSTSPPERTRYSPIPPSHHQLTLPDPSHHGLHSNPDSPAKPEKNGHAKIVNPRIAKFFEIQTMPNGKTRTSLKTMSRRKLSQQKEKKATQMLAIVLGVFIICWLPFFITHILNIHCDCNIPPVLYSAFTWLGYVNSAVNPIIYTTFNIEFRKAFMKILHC
Description: Affinity against striatal dopamine D2 receptors using [3H]spiperone as radioligand in rats.

Rattus norvegicus [11] = experiment: Evaluated biochemically in reserpine-pretreated habituated rats for (100 umol/kg) subcuteneous dose, Value expressed as locomotor activity (LMA); type: functional
D(2) dopamine receptor [12] = molecular target: T2, D(2) dopamine receptor; experiment: biochemical; remark: listed apart in the source
Description: In vitro binding affinity against cloned mammalian dopamine D2 autoreceptor, expressed in CHO-K1 cells, using [3H]U-86170 as radioligand

Rattus norvegicus [13] = experiment: Evaluated for DOPAC level in nonpretreated habituated rats after subcuteneous dose of 100 micro mol/kg in rat striatum; type: functional
Rattus norvegicus [14] = experiment: Compound is tested for its ability to displace (Di-Pr-5,6-ADTN) at […] of subcutaneous dose from rat striatal binding sites in vivo; type: functional
Rattus norvegicus [15] = species on record: Rattus norvegicus; experiment: Compound is tested for concomitant ability to antagonize the locomotor activity induced by Di-Pr-5,6-ADTN; type: functional
D(2) dopamine receptor [16] = molecular target: T3, D(2) dopamine receptor; experiment: Tested for affinity against striatal dopamine autoreceptor (DA) D2 receptors using [3H]spiperone as radioligand in rats.
Rattus norvegicus [17] = experiment: Compound is evaluated for locomotor activity in reserpine-pretreated habituated rats at 100 micro mol/kg of subcuteneous dose; type: functional
Dopamine receptor = experiment: Tested for in vitro binding affinity against cloned mammalian dopamine autoreceptor (DA) receptors expressed in CHO-K1 cells using [3H]U-86170 as radioligand; type: cell-based
Rattus norvegicus [18] = experiment: Evaluated for biochemical levels of DOPAC in nonpretreated habituated rats for subcuteneous dose of 100 micro mol/kg in rat striatum; type: functional
D(3) dopamine receptor [19] = molecular target: T1, D(3) dopamine receptor; experiment: Tested for in vitro binding affinity against cloned mammalian dopamine autoreceptor (DA) receptors expressed in CHO-K1 cells [3H]-spiperone as radioligand; type: cell-based
Rattus norvegicus [20] = experiment: Evaluated for locomotor activity in nonpretreated habituated rats at 100 umol/kg of subcuteneous dose; type: functional; design: unit not given here
Rattus norvegicus [21] = experiment: Compound is evaluated for DOPA accumulation in reserpine-pretreated habituated rats at 100 umol/kg of subcuteneous dose in rat striatum; type: functional
Rattus norvegicus [22] = experiment: Compound is evaluated for accumulation of DOPA in nonhabituated rats at 100 umol/kg of subcuteneous dose in rat striatum; type: functional
Rattus norvegicus [23] = experiment: Compound is evaluated for locomotor activity in nonhabituated rats at 100 umol/kg of subcuteneous dose; type: functional
Rattus norvegicus [24] = experiment: Effect 60 min after administration of 200 (umol/kg) subcuteneous dose on DA release in rat brain dialysis model; type: functional
Rattus norvegicus [25] = experiment: Compound is evaluated for locomotor activity in reserpine-pretreated habituated rats for (100 umol/kg) subcuteneous dose; type: functional
D(2) dopamine receptor [26] = molecular target: T2, D(2) dopamine receptor; conditions: cho-k1
Description: as §1

Rattus norvegicus [27] = experiment: Evaluated for locomotor activity in nonpretreated habituated rats in 100 umol/kg of subcuteneous dose; type: functional; design: unit not given here
Rattus norvegicus [28] = experiment: Compound is evaluated for biochemical levels of DOPAC in nonpretreated habituated rats for subcuteneous dose of 100 umol/kg in rat striatum; type: functional
D(2) dopamine receptor [29] = molecular target: T3, D(2) dopamine receptor; experiment: Tested for affinity against cloned mammalian dopamine autoreceptor (DA) D2 receptors expressed in CHO-K1 cells using [3H]spiperone as radioligand; type: cell-based
Rattus norvegicus [30] = species on record: Rattus norvegicus; experiment: Compound was tested in vio for concomitant ability to antagonize the locomotor activity of rat induced by Di-Pr-5,6-ADTN, Value expressed as locomotor activity (LMA), % of control; type: functional; design: scale not given: the % may be the effect or the level left
Rattus norvegicus [31] = experiment: Compound was tested in vivo for its ability to displace DA receptor agonist (Di-Pr-5,6-ADTN) from rat striatal binding sites at 0.25 uM/Kg sc. dose; type: functional
Rattus norvegicus [32] = experiment: Evaluated for DOPA accumulation (DOPAacc) level in nonhabituated rats after subcuteneous dose (100 uM/kg) in rat striatum; type: functional
Rattus norvegicus [33] = species on record: Rattus norvegicus; experiment: Compound was tested in vio for concomitant ability to antagonize the locomotor activity of rat induced by Di-Pr-5,6-ADTN; type: functional

SMILES: CCCN1CCC[C@@H](c2cccc(C(C)=O)c2)C1
Control (Rattus norvegicus [1]): 183%
Ki (D(3) dopamine receptor [2]): 2150 nM
Ki (D(2) dopamine receptor [3]): > 217 nM
Control (Rattus norvegicus [4]): 81%
Locomotor activity (% of control) (Rattus norvegicus [5]): 139%
Control (Rattus norvegicus [6]): 44%
Activity (Rattus norvegicus [7]): 179%
Control (Rattus norvegicus [8]): 824%
Activity (Rattus norvegicus [9]): 73%
Ki (D(2) dopamine receptor [10]): 6540 nM
Control (Rattus norvegicus [11]): 7%
Ki (D(2) dopamine receptor [12]): > 1850 nM
Activity (Rattus norvegicus [13]): 243%

SMILES: CCCN(CCC)C1CCc2c(ccc(O)c2O)C1 (centres undefined)
Activity (Rattus norvegicus [14]): 0%
LMA (Rattus norvegicus [15]): 100%

SMILES: CCCN1CCC[C@@H](c2cccc(SC)c2)C1
Ki (D(2) dopamine receptor [16]): 849 nM
Ki (D(2) dopamine receptor [3]): > 217 nM
LMA (Rattus norvegicus [17]): 5
Ki (Dopamine receptor): 49 nM
Activity (Rattus norvegicus [18]): 118%
Ki (D(3) dopamine receptor [19]): 139 nM
LMA (Rattus norvegicus [20]): 313
Activity (Rattus norvegicus [21]): 92%

SMILES: C#Cc1cccc([C@@H]2CCCN(CCC)C2)c1
Ki (D(2) dopamine receptor [16]): 709 nM
Ki (D(2) dopamine receptor [3]): > 217 nM
Activity (Rattus norvegicus [22]): 136%
LMA (Rattus norvegicus [23]): 237
Ki (Dopamine receptor): 334 nM
Activity (Rattus norvegicus [18]): 138%
Ki (D(3) dopamine receptor [19]): 339 nM
Activity (Rattus norvegicus [24]): 265%
LMA (Rattus norvegicus [20]): 671

SMILES: CCCN1CCC[C@@H](c2cccc(C=O)c2)C1
Ki (D(2) dopamine receptor [16]): 1120 nM
Ki (D(2) dopamine receptor [3]): 145 nM
Ki (Dopamine receptor): 20 nM
Activity (Rattus norvegicus [18]): 127%
LMA (Rattus norvegicus [25]): 5
Ki (D(3) dopamine receptor [19]): 83 nM
LMA (Rattus norvegicus [20]): 208
Activity (Rattus norvegicus [21]): 92%

Ki (D(2) dopamine receptor [16]): > 172 nM
Ki (D(2) dopamine receptor [26]): > 217 nM
Ki (Dopamine receptor): > 1900 nM
Ki (D(3) dopamine receptor [19]): > 500 nM
SMILES: C=CCN1CC[C@@H]2c3cccc(OS(=O)(=O)C(F)(F)F)c3CC[C@@H]21 (stereo in doubt; 50)
Activity (Rattus norvegicus [18]): 98%
LMA (Rattus norvegicus [27]): 148

Ki (D(2) dopamine receptor [16]): 1320 nM
Ki (D(2) dopamine receptor [3]): > 217 nM
Ki (Dopamine receptor): 162 nM
Ki (D(3) dopamine receptor [19]): 92 nM
SMILES: CCCN1CCC[C@@H](c2cccc(OS(=O)(=O)c3ccc(C)cc3)c2)C1
Activity (Rattus norvegicus [28]): 89%
LMA (Rattus norvegicus [20]): 152

Ki (D(2) dopamine receptor [16]): 2330 nM
Ki (D(2) dopamine receptor [29]): > 217 nM
SMILES: CN(C)CCCN1CCC[C@@H](c2cccc(C#N)c2)C1

SMILES: CCCN1CCC[C@@H](c2cccc(C#N)c2)C1
Ki (D(3) dopamine receptor [2]): 249 nM
Ki (D(2) dopamine receptor [3]): 265 nM
Control (Rattus norvegicus [6]): 66%
Activity (Rattus norvegicus [7]): 252%
Control (Rattus norvegicus [30]): 31%
Ki (D(2) dopamine receptor [10]): 1140 nM
Control (Rattus norvegicus [11]): 12%
Ki (D(2) dopamine receptor [12]): 119 nM

SMILES: CCN1CCCC1CNC(=O)c1c(OC)ccc(Br)c1OC (single isomer, unassigned) [REMOXIPRIDE]
Control (Rattus norvegicus [31]): 48%
Locomotor activity (% of control) (Rattus norvegicus [5]): 60%
Activity (Rattus norvegicus [9]): 104%
Activity (Rattus norvegicus [32]): 411%
Control (Rattus norvegicus [11]): 5%
LMA (Rattus norvegicus [33]): 91%
Activity (Rattus norvegicus [13]): 313%
